Results: patent US3985878A, “Anti-inflammatory and antirheumatic compounds and preparation” (priority 1974, dated 1976)
Where “and” joins values, the source holds several entries; their conditions need not be identical. Identical values can stand only once. Counter-ions that a name gives are not always drawn. Like-named read-outs stand apart in the source and are kept apart here.

Assays:
[1] = Anti-inflammatory activity, paw test (Domenjoz test); format: in vivo, rat; details: read-out: ED50 per os, acute anti-inflammatory activity (Domenjoz test)
Experimental: 1a. Anti-inflammatory activity: this activity was measured by the paw test according to Doemnjoz, characterised in its carrying out by the following method:
To young rats of medium weight of 200 g there is administered by hypodermic injection into the right paw an aqueous suspension of carragheen at 1%, 1 hour after the oral administration of the drugs under investigation.
After two hours from the administration of the carragheen, the pawas are disjointed, weighed, and comparison is made between the injected paw, meanwhile swollen, and the paw not interfered with.
This evaluation is expressed both in mg/kg of animal weight and in micromoles/Kg of weight of the animal.

[2] = Analgesic activity, phenylquinone test; format: in vivo, rat; details: read-out: ED50 per os, analgesic activity (phenylquinone test)
Excerpt: 2. Analgesic activity: The analgesic activity of an anti-inflammatory can be examined traditionally by the phenylquinone method based on the fact that intra-peritoneal administration to a rat of an irritant substance such as phenylquinone induces vocal reactions ("squirring") in the animal.
From the number of these reactions one judges the pain sensitivity.

[3] = tested on: fibroblast culture; experiment: Production of mucopolysaccharides from fibroblast culture in vitro; format: cell-based; details: Fibroblast, 240 h, read-out: Mucopolysaccharide products at the tenth day of incubation; for activity at 10 µg/mL: 10 μg/ml of culture liquid
Experimental: a. Tests in vitro: These tests consist of the cultivation in vitro, i.e., outside the organism, of tissue of the same embriological origin in relation to the osteoarticular. Upon the growth of this tissue there is then measured the activities of the various drugs. The units of measurement of these activities is the production of glucosaminoglicanes (mucopolysaccharides measured by the turbidimetric method).
The compounds which form the subject of this invention were evaluated according to this test and compared with known anti-inflammatories.

[4] = Pellets-induced granuloma test (cotton pellets); format: in vivo, rat; details: read-out: ED50 per os, acute anti-inflammatory activity (granuloma test)
Experimental: 1b. Pellets-induced granuloma test:
Another important test for the evaluation of an anti-inflammatory is that of cotton pellets. This consists of planting a sterile cotton pellet under the rat's back skin.
This pellet is left in situ for a week while the animals are treated daily with various doses of the drug being examined. Evaluation is effected by weighing the pellets taken at the given time and dried, comparing the weight of those of the treated animals with the checks.

[5] = Osteolathyrism in the rabbit (aminoacetonitrile); format: in vivo; details: for Deformed gait of back legs / Deformed gait of front legs / General Condition of Animal / Loss of fur / Loss of weight / Ptosis of auricular pavilion: score 0 (no damage) to 4 (maximum damage), 25 days
Experimental: B. Tests in vivo: Osteolathyrism in the rabbit.
Osteolathrism consists of inducing into young rabbits a dystrophy of the bone joint system, administering every day aminoacetonitrile by i.p. means, in the quantity of 100 mg/kg of body weight. With this treatment, in about 30 days, the following changes are shown in the rabbit:
Loss of weight (related to the checks physiologically treated), ptosis of the auricular pavilion, loss of fur, deformation of the front and rear limbs, deterioration of the general condition.
All this takes place because the aminoacetonitrile is a collagen tissue poison which changes the biochemical composition of the joint cartilages and the bones.
An evaluation of the therapeutic activity can be made either by biochemical evaluation, i.e. by measuring the quantity of aminosugars in these tissues, or by considering only the general symptoms, which are proportional to the diminution of the aminosugars.
In Table 5 this latter evaluation is reported, in which every symptom was evaluated by allotting it a number from 0 to 4, 4 indicating the maximum amount of damage and 0 indicating no damage.
On Table 5 there are given the results of treatment evaluated on the 25th day, comparing the groups treated only with a physiological solution, only with aminoacetonitrile, with aminoacetonitrile and CR 604, with aminoacetonitrile and Indometacin in the prescribed doses.
Each group consisted of 8 animals.

[6] = Irritant and ulceroid (gastrolesive) activity on the gastric mucosa; details: in vivo, rat
Experimental: 4. Irritant and ulceroid activity on the gastric mucosa
The experimental evaluation of this activity was made on rats, by the method here reported:
The compound is administered orally to rats which have fasted for 12 hours, the animals being killed 4 hours after the administration.
Regarded as positive, i.e. with stomach damage, are those animals which have at least one haemorrhage point on the stomach wall.
By ED50 there is meant that dose of the drug which can […] in 50% of the animals treated, the formation of these haemorrhages.
In Table 6 there are compared CR 604 and Indometacin, since the latter is, amongst them all, the nearest to the anti-inflammatory activity values of CR 604.

[7] = format: in vivo, human; details: for gastric disturbances (subjects treated): Indometacin capsules of 25 mg
Experimental: Thus for example comparing CR 604 administered in capsules of 75 mg (6 per day), with Indometacin in capsules of 25 mg (6 per day), i.e. in approximately equimolecular doses on a group of 60 subjects treated (30 with CR 604 and 30 with Indometacin, one notes that (see Table 7): […]

[8] = tested on: uropepsinogene; format: in vivo, human
Experimental: (§1) Thus for example comparing CR 604 administered in capsules of 75 mg (6 per day), with Indometacin in capsules of 25 mg (6 per day), i.e. in approximately equimolecular doses on a group of 60 subjects treated (30 with CR 604 and 30 with Indometacin, one notes that (see Table 7):
Gastric secretion of pepsin is increased by agents which irritate and damage the gastric mucosa.

[9] = tested on: urinary calcium; format: in vivo, human
Experimental: as §1
c. […] Excretion of calcium is related to the destruction of the fibrils of the proteic bone matrix which thus also loses the calcium deposited upon it.
The administration of known anti-inflammatories brings about the lysis of these fibrils with loss of calcium.

[10] = Solubility; format: physicochemical
[11] = rat, oral 1 hour before carragheen 1%, paws weighed after two hours
[12] = 5 mg/kg/day i.p. + aminoacetonitrile 100 mg/kg/day
[13] = oral, fasted 12 hours, killed 4 hours after administration, read-out: ED50 gastrolesive
[14] = after one week, CR 604 75 mg or Indometacin 25 mg capsules, 6 per day
[15] = after three weeks, CR 604 75 mg or Indometacin 25 mg capsules, 6 per day
[16] = 15 mg/kg/day i.p. + aminoacetonitrile 100 mg/kg/day

CCCCC1C(=O)N(c2ccccc2)N(c2ccccc2)C1=O [Phenylbutazone]
ED50 [1, 11]: 464 µmol/kg and 143 mg/kg | ED50 ([2]; rat, oral): 324 µmol/kg and 100 mg/kg | activity at 10 µg/mL [3]: 58%

CC(=O)Oc1ccccc1C(=O)O [Acetylsalicylic ac.]
ED50 ([1]; Rattus norvegicus, po): 1250 µmol/kg and 226 mg/kg

COc1ccc2c(c1)c(CC(=O)O)c(C)n2C(=O)c1ccc(Cl)cc1 [Indometacin]
ED50 ([1]; Rattus norvegicus, po): 17.3 µmol/kg and 6.2 mg/kg | ED50 ([4]; Rattus norvegicus, po): 23.5 µmol/kg and 8.41 mg/kg | ED50 ([2]; Rattus norvegicus, po): 5.6 µmol/kg and 2 mg/kg | activity at 2 µg/mL [3]: 78% | effect on aminoacetonitrile symptoms, in words ([5]; rabbit): cannot prevent the occurrence of these conditions | Deformed gait of back legs [5, 12]: 1.6 | Deformed gait of front legs [5, 12]: 3.2 | General Condition of Animal [5, 12]: 3.8 | Loss of fur [5, 12]: 3 | Loss of weight [5, 12]: 3.5 | Ptosis of auricular pavilion [5, 12]: 1.4 | TD50 at 4 h [6, 13]: 33.5 µmol/kg and 12 mg/kg | gastrolesive dose, in words ([6]; po): very low | gastric disturbances (subjects treated) ([7]; after 1 week of treatment, 6 per day): 46.6% | gastric disturbances (subjects treated) ([7]; after 3 weeks of treatment, 6 per day): 53.3% | Epigastric pain ([7]; after 3 weeks, CR 604 75 mg or Indometacin 25 mg capsules, 6 per day): 53.3 % of patients in pain | Epigastric pain [7, 14]: 46.6 % of patients in pain | Epigastric pain ([7]; before treatment): 0 % of patients in pain | Uropepsinogene [8, 14]: 208.1 equivalent mg of tyrosine per | Uropepsinogene [8, 15]: 345.7 equivalent mg of tyrosine per | Uropepsinogene ([8]; before treatment): 164.7 equivalent mg of tyrosine per | uropepsinogene in urine, in words ([8]; human): increases | Urinary calcium [9, 14]: 137 mg/1000 cc of urine | Urinary calcium [9, 15]: 148 mg/1000 cc of urine | Urinary calcium ([9]; before treatment): 126 mg/1000 cc of urine | excretion of urinary calcium, in words ([9]; human): tendency to an increase

CC(C)Cc1ccc(C(C)C(=O)O)cc1 (stereo not drawn) [Ibuprofen]
ED50 [1, 11]: 436 µmol/kg and 90 mg/kg

CCCN(CCC)C(=O)C(CCC(=O)OCCCN1CCN(CCOC(=O)Cc2c(C)n(C(=O)c3ccc(Cl)cc3)c3ccc(OC)cc23)CC1)NC(=O)c1ccccc1 (racemic) [CR 604 (di-maleate), N'-2-[1-(p-chlorobenzoyl)-5-methoxy-2-methyl-3-indoleacetoxy]ethyl-N-3-(N-benzoyl-N', N'-di-n-propyl-DL-isoglutaminoyl)-oxypropyl-piperazine]
ED50 [1, 11]: 11.5 µmol/kg and 12.3 mg/kg | ED50 ([4]; rat, oral, daily for a week): 25.6 µmol/kg and 27.6 mg/kg | ED50 ([2]; rat, oral): 5.3 µmol/kg and 5.72 mg/kg | activity at 6 µg/mL ([3]; 6 μg/ml of culture liquid): 108% | Deformed gait of back legs [5, 16]: 0.6 | Deformed gait of front legs [5, 16]: 0 | General Condition of Animal [5, 16]: 0.2 | Loss of fur [5, 16]: 0 | Loss of weight [5, 16]: 0 | Ptosis of auricular pavilion [5, 16]: 0.2 | TD50 at 4 h [6, 13]: 330 µmol/kg | TD50 at 4 h ([6]; po): 355 mg/kg | Epigastric pain ([7]; in vivo): 0 % of patients in pain | Uropepsinogene ([8]; in vivo): 216.3 equivalent mg of tyrosine per | Urinary calcium ([9]; in vivo): 132 mg/1000 cc of urine | solubility in acetone [10]: slightly soluble | solubility in ethanol [10]: slightly soluble | solubility in methanol [10]: more soluble | solubility in water, in words ([10]; water): Insoluble

CCCN(CCC)C(=O)C(CCC(=O)OCCCN1CCN(CCOC(=O)Cc2c(C)n(C(=O)c3ccc(Cl)cc3)c3ccc(OC)cc23)CC1)NC(=O)c1ccccc1 (racemic) [CR 604 dioxalate, N'-2-[1-(p-chlorobenzoyl)-5-methoxy-2-methyl-3-indoleacetoxy]ethyl-N-3-(N-benzoyl-N', N'-di-n-propyl-DL-isoglutaminoyl)-oxypropyl-piperazine]
solubility in acetone [10]: slightly soluble | solubility in ethanol [10]: slightly soluble | solubility in methanol [10]: slightly soluble | solubility in water, in words ([10]; water): Insoluble

Cc1cccc(Nc2ccccc2C(=O)O)c1C [Mephenamic ac.]
ED50 [1, 11]: 439 µmol/kg and 106 mg/kg | activity at 10 µg/mL [3]: 58%

CCCN(CCC)C(=O)C(CCC(=O)OCCCN1CCN(CCOC(=O)Cc2c(C)n(C(=O)c3ccc(Cl)cc3)c3ccc(OC)cc23)CC1)NC(=O)c1ccccc1 (racemic) [CR 604 di-hydrochloride, N'-2-[1-(p-chlorobenzoyl)-5-methoxy-2-methyl-3-indoleacetoxy]ethyl-N-3-(N-benzoyl-N', N'-di-n-propyl-DL-isoglutaminoyl)-oxypropyl-piperazine]
solubility in acetone [10]: Fairly soluble | solubility in ethanol [10]: Soluble | solubility in methanol [10]: Soluble | solubility in water, in words ([10]; water): Hardly soluble | solubility ([10]; water, 25°): ~5000 µg/mL

CCCN(CCC)C(=O)C(CCC(=O)OCCCN1CCN(CCCOC(=O)Cc2c(C)n(C(=O)c3ccc(Cl)cc3)c3ccc(OC)cc23)CC1)NC(=O)c1ccccc1 (racemic) [CR 613 (di-maleate), N'-3-[1(p-chlorobenzoyl)-5-methoxy-2-methyl-3-indoleacetoxy]-propyl-N-3-(N-benzoyl-N',N'-di-n-propyl-DL-isoglutaminoyl)-oxypropyl-piperazine]
ED50 [1, 11]: 13.6 µmol/kg and 14.9 mg/kg | TD50 at 4 h [6, 13]: 277 µmol/kg | TD50 at 4 h ([6]; po): 303 mg/kg | solubility in acetone [10]: slightly soluble | solubility in ethanol [10]: slightly soluble | solubility in methanol [10]: more soluble | solubility in water, in words ([10]; water): Insoluble

CCCN(CCC)C(=O)C(CCC(=O)OCCN1CCN(CCOC(=O)Cc2c(C)n(C(=O)c3ccc(Cl)cc3)c3ccc(OC)cc23)CC1)NC(=O)c1ccccc1 (racemic) [CR 626 (di-maleate), N'-2-[1-(p-chlorobenzoyl)-5-methoxy-2-methyl-3-indoleacetoxy]-ethyl-N-2-(N-benzoyl-N',N'-di-n-propyl-D,L-isoglutaminoyl)-oxyethyl-piperazine]
ED50 [1, 11]: 15 µmol/kg and 16 mg/kg | TD50 at 4 h [6, 13]: 342 µmol/kg | TD50 at 4 h ([6]; po): 363 mg/kg | solubility in acetone [10]: slightly soluble | solubility in ethanol [10]: slightly soluble | solubility in methanol [10]: more soluble | solubility in water, in words ([10]; water): Insoluble
